The test system of experiment [1] is GP2D human colon cancer cells. The experiment can be described thus: Cell proliferation assay (Cell Titer-Glo), GP2D. The class given is cell-based. Particulars: 72 hours. On the procedure:
(§1) On day 1, AGS human gastric cancer cells, ASPC-1 human pancreatic cancer cells, or GP2D human colon cancer cells (Nanjing Cobioer Biosciences Co. Ltd.) in the logarithmic growth phase were taken, digested with an appropriate amount of trypsin, formulated into a single cell suspension using RPMI 1640 (Gibco) medium containing 10% fetal bovine serum and 1% penicillin-streptomycin, counted to adjust the cell density, inoculated in a 96-well plate at 95 μL/well so that there were 3000 cells per well, and then the cell culture plate was incubated in a 37° C., 5% CO2 incubator for overnight. On day 2, a 10 mM concentrated stock solution of KRAS G12D inhibitor was 3-fold serially diluted with dimethyl sulfoxide solution, and then diluted with AGS complete culture medium to make a working solution, which was added to a cell culture plate at 5 μL/well so that the compound had the highest concentration of 10 μM and the lowest concentration of 0.0015 μM, and the control group was 0.5% dimethyl sulfoxide. The cell culture plate was briefly centrifuged and then incubated in a CO2 incubator for 72 hours. On day 5, the cell culture plate was taken out, added with Cell Titer-Glo (Promega) detection reagent in each well, incubated in the dark for 10 minutes, and then luminescence was detected using a microplate reader (Tecan, Infinite M1000 Pro). Data were analyzed using Graphpad software, and curve fitting was performed with four-parameter equation and the IC50 value of the inhibitor was calculated.

Experiment [2] deals with ASPC-1 human pancreatic cancer cells. The experiment can be described thus: Cell proliferation assay (Cell Titer-Glo), ASPC-1. Format: cell-based. On the procedure: as §1
Background: ATP-based viability assays read luminescence as a measure of living cells.

The target of experiment [3] is Human KRAS G12D His-tagged protein (Homo sapiens (Human), UniProt P01116, G12D). The experiment can be described thus: KRAS G12D binding assay (TR-FRET). To be noted: GDP 20 nM, GTP-Red. On the procedure:
The binding ability of the compound to KRAS G12D protein was detected by TR-FRET method, and the inhibitory activity of the compound on KRAS G12D protein was evaluated. Human KRAS G12D His-tagged (Cisbio, 63ADK000CB27PEG) protein was 100-fold diluted with PPI Eu detection buffer (Cisbio, 61DB9RBF), then 5 μL of which was added to a 384-well plate and centrifuged at 2000 rpm for 40 seconds. A 10 mM concentrated stock solution of the test compound was prepared with dimethyl sulfoxide, 3-fold serially diluted, then diluted to make a working solution (0.5% DMSO) with PPI Eu detection buffer, added to a 384-well plate at 5 μL/well, with the control group added with 0.5% dimethyl sulfoxide and the highest concentration of the test compound at 10 μM, and centrifuged at 2000 rpm for 40 seconds. An 80 nM GDP standard working solution (Cisbio, 63ADK000CB27PEG) was prepared with PPI Eu detection buffer and added to a 384-well plate at 5 μL/well, with the final concentration of GDP standard working solution at 20 nM. The plate was centrifuged at 2000 rpm for 40 seconds and reacted at room temperature for 30 minutes. 1×6His Eu cryptate antibody and GTP-Red reagent (Cisbio, 63ADK000CB27PEG) were prepared with PPI Eu detection buffer, mixed in a volume ratio of 1:1, 5 μL of which was then added to a 384-well plate, centrifuged at 2000 rpm for 40 seconds, and incubated at room temperature for 30 minutes. The fluorescence intensity at 620 nm and 665 nm was detected by a microplate reader, and the inhibitory activity of the compound on KRAS G12D protein was obtained by fitting a four-parameter equation.
A general note: TR-FRET usually uses a lanthanide donor and a delayed reading to cut background.

Experiment [4] has as its system GP2D human colon cancer cells subcutaneous xenograft tumor. The experiment can be described thus: In vivo pharmacodynamic experiment of subcutaneous xenograft tumor model in mice of GP2D human colon cancer cells. Particulars: BALB/c nude mice; for Tumor volume (11 days, mm^3): 11 days (at grouping). On the procedure:
Cell culture: GP2D human colon cancer cells were maintained in monolayer culture in DMEM culture medium containing 10% fetal bovine serum in a constant temperature incubator containing 5% CO2 at 37° C. Tumor cells were passaged twice a week. Cells in the exponential growth phase were harvested and counted for inoculation.
Experimental animals: BALB/c nude mice, 6 to 8 weeks, 18 to 22 g, purchased from Jiangsu GemPharmatech Co. Ltd.
Experimental method: GP2D cell line ([…]) was inoculated subcutaneously on the right back of experimental mice. The inoculation volume of each mouse was 0.1 mL. The growth of the tumor was observed regularly. When the tumor grew to about 150 mm^3, the mice were randomly grouped according to the tumor size and body weight, and the drug was administrated according to the administration plan shown in Table 1. The body weight and tumor size were measured twice a week throughout the experiment.
tumor volume (mm^3)=0.5×(tumor long diameter×tumor short diameter^2). Tumor size calculation formula: […]
(A xenograft is tissue or cells of one species grown in another, often human tumour cells in immunodeficient mice.)

Experiment [5] relates to phosphorylation level of ERK1/2 in ASPC-1 human pancreatic cancer cells. The experiment can be described thus: pERK cell level assay (PHOSPHO-ERK1/2 HTRF kit). The class given is cell-based. Particulars: Aspc-1 cells, 4 hours incubation. On the procedure: In this experiment, the phosphorylation level of ERK1/2 in AGS human gastric cancer cells or ASPC-1 human pancreatic cancer cells was detected using PHOSPHO-ERK1/2 (THR202/TYR 204) (Cisibo, 64ERKPEH) kit, and the inhibitory effect of the compounds on KRAS G12D was investigated based on the phosphorylation level of ERK1/2.
On day 1, the density of AGS cell (ATCC) suspension was adjusted to 2.1×10^5 cells/mL, then the suspension was spread in a 96-well plate at 95 μL/well so that there were 2×10^4 cells per well, and the cell culture plate was incubated in a 37° C., 5% CO2 incubator for overnight. On day 2, the compound was serially diluted with 100% dimethyl sulfoxide, and then further diluted with a complete culture medium (RPMI-1640+10% FBS+1% PS) to make a working solution of the compound, which was added to a 96-well cell culture plate at 5 μL/well, and incubated in a 37° C., 5% CO2 incubator for 4 hours. After the incubation was completed, the culture medium was discarded, then 1× lysis buffer was added thereto at 50 μL/well, and the plate was shaken at room temperature for 30 minutes. 16 μL of lysis buffer was added to a white 384-well shallow well plate, then 4 μL of pre-formulated antibody mixture was added thereto, and the plate was sealed with microplate sealer and incubated at room temperature for overnight. On day 3, detection was performed on a TECAN M1000 Pro microplate reader using the HTRF setting, and the IC50 value of the compound was calculated.

These results are taken from patent US20240327425A1, “KRAS G12D INHIBITOR AND USE THEREOF” (SHANGHAI DE NOVO PHARMATECH CO., LTD., priority 2021, published 2024).

Sequence of Human KRAS G12D His-tagged protein (P01116-2 other isoform, or with tags, fused parts or gaps G12D): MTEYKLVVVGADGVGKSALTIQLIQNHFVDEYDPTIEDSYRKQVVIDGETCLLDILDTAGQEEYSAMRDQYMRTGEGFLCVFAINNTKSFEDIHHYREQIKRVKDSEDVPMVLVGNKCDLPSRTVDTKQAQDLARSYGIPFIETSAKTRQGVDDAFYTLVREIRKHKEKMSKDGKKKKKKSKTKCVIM

As for `N#Cc1c(N)sc2cccc(-c3c(Cl)c4c5c(nc(OC[C@@]67CCCN6C[C@H](F)C7)nc5c3F)N3C[C@H]5CC[C@H](N5)[C@H]3CO4)c12` (single isomer, unassigned) [Compound I-7-2], the IC50 in experiment [1] (Homo sapiens) was determined as 0.095 nM; in experiment [2] (Homo sapiens, ASPC1, Aspc-1, 72 hours) it was 1.7 nM; in experiment [3] it was 2.44 nM; in experiment [5] (Homo sapiens, ASPC1, pERK1/2 (THR202/TYR204)) it was 0.544 nM. Besides, the entries for the “Tumor volume (11 days, mm^3)” value in experiment [4] (3 mg/kg i.p. twice a day) and in experiment [4] (10 mg/kg i.p. twice a day) were 140.32 ± 19.74 mm^3 and 139.69 ± 17.49 mm^3, respectively. For the same compound, the “Tumor volume (21 days, mm^3)” value in experiment [4] (3 mg/kg i.p. twice a day) is reported as 80.27 ± 11.38 mm^3; in experiment [4] (10 mg/kg i.p. twice a day) it was 70.19 ± 11.89 mm^3. Besides, the results for the “T/C (%)” value in experiment [4] (3 mg/kg i.p. twice a day) and in experiment [4] (10 mg/kg i.p. twice a day) were 18.6% and 15.5%, respectively. For the same compound, the “Tumor regression rate (%)” value in experiment [4] (3 mg/kg i.p. twice a day) is −39.9%; in experiment [4] (10 mg/kg i.p. twice a day), −49.8%.
As for `CC(Oc1nc2c3c(c(Cl)c(-c4cccc5sc(N)c(C#N)c45)c(F)c3n1)OC[C@@H]1[C@@H]3CC[C@H](CN21)N3)[C@@]12CCCN1C[C@H](F)C2` (stereo partly drawn) [Compound I-17, 2-amino-4-((5aS,6S,9R)-3-chloro-1-fluoro-13-(1-((2R,7aS)-2-fluorohexahydro-1H-pyrrolizin-7a-yl)ethoxy)-5a,6,7,8,9,10-hexahydro-5H-6,9-epiminoazepino[2′,1′:3,4][1,4]oxazepino[5,6,7-de]quinazolin-2-yl)benzo[b]thiophene-3-carbonitrile ditrifluoroacetate], the IC50 in experiment [1] amounted to 0.497 nM; in experiment [2] (Aspc-1, 72 hours), 31.9 nM; in experiment [3], 7.77 nM; in experiment [5] (pERK1/2 (THR202/TYR204)) it was 5.58 nM.

As usually defined, the IC50 is the concentration that inhibits the measured activity by half.
